Experiment [1] relates to endothelial cell tube formation. The settings on record: concentration-dependent; cited from earlier work.
In experiment [2] the test system is colon carcinoma (HCT-116). The settings on record: CAM model; cited from earlier work.
The test system of experiment [3] is tumor cell-induced thrombocytopenia. Nature of the experiment: Tumor cell-induced clotting activation in vivo (platelet count). On the set-up: species or system mice. The settings on record: 700 ng i.v. 5 minutes prior to tumor cell injection. An excerpt:
(§1) Tinzaparin is a low molecular weight heparin that is produced by heparinase depolymerization of unfractionated heparin allowing for its relatively high sulfate to carboxylate ratio. Beyond its potent plasmatic effects on ATIII-dependent coagulation factors, Tinzaparin is a very effective LMWH in causing the release of TFPI from the endothelial cells, the natural inhibitor of tissue factor pro-coagulant and non-coagulant effects. The present study was undertaken to investigate the effect of the LMWH, Tinzaparin as well as recombinant TFPI on experimental lung metastasis. […] In a second experimental group, in addition to the initial (pre-tumor cell) dose, subcutaneous Tinzaparin (10 mg/kg) was administered daily for 14 days at which time lung seeding was assessed. In the latter group, lung tumor formation was reduced by 96% (P<0.001). […] In order to determine the anticoagulant activity of Tinzaparin, 4 hrs after a single subcutaneous dose, whole blood re-calcification was measured using a Sonoclot Analyzer. Tinzaparin (10 mg/kg S.C.) prolonged the clotting time 4 fold. Furthermore, measuring the platelet count (a sensitive marker of intravascular coagulation) before and 15 minutes determined the effect of Tinzaparin on tumor cell-induced clotting activation in vivo after tumor cell injection in control and Tinzaparin-treated animals. […]

The subject of another experiment is B16 melanoma. Put plainly: B16 melanoma injectable model of experimental lung metastasis. The settings on record: 700 ng i.v. 5 minutes prior to tumor cell injection. It is filed as in vivo, mice.
Excerpt: as §1

With “r-TFPI: recombinant tissue factor pathway inhibitor”, the “effect on endothelial cell tube formation” value in experiment [1] was “significant and comparable inhibitory effects”. In experiment [2], the “inhibition of colon or lung carcinoma-induced angiogenesis, tumor growth and regression” value is given as “significant inhibition”. In experiment [3], the “effect on tumor cell induced thrombocytopenia” value is recorded as “abolished tumor cell induced thrombocytopenia”. Moreover, the “reduction of B16 lung metastasis” value in the experiment on B16 melanoma turned out to be 85%.

The record behind these values is US6908907B2, “Prevention and treatment of tumor growth, metastasis, and thromboembolic complications in cancer patients” (priority 2002, dated 2005).
